This is an account of results in US9498035B2, “Silicone hydrogel contact lenses for sustained release of beneficial polymers” (CooperVision International Holding Company, LP, priority 2012, dated 2016).

The nature of data set [1]: Uptake of αPLL of varying molecular weight by Formulation C lenses. It counts as physicochemical. The note with it: 1.8 ml 500 ppm αPLL in PBS, autoclave and overnight storage at room temperature, hydrobromide. The method, then:
Solutions of 500 ppm poly-L-lysine hydrobromide (CAS No. 25988-63-0) (αPLL) with varying molecular weight ranges were prepared in PBS. Lenses of Formulation C prepared as described in Example 1 were packaged with 1.8 ml of each solution and autoclaved. After autoclave and overnight storage at room temperature uptake of αPLL was measured.

Data set [2] is described as follows: Release of αPLL of varying molecular weight from Formulation C lenses. The note with it: for release between the 6 hour and 24 hour time points (in words): hydrobromide. It counts as physicochemical. The method, then: Lenses of Formulations B-E prepared according to Example 1 were used in this study. The lenses were immersed in 1.2 ml of 500 ppm εPLL in PBS for 48 hours as described in Example 3. Excess solution was removed from each lens by gently blotting with an absorbent tissue. Each lens was immersed in 1 ml of ISO 10344 standard saline solution (0.83% sodium chloride, 0.0467% sodium phosphate monobasic, and 0.4486% sodium phosphate dibasic) in a well of a 12-well plate and covered. The plates were shaken at 100 rpm at 37±2° C. At 2, 4, 6, 8, 12, and 24 hours, the solution was removed from each well and replaced with 1 ml of fresh ISO 10344 standard saline solution. HPLC was used to determine the amount of εPLL released from each lens.
Polymer release was tested substantially as described in Example 4, except that the time points tested were at 2, 6, and 24 hr.

Turning to “poly-L-lysine hydrobromide [Formulation 500-2K]”, in data set [1], the uptake turned out to be 122 μg/lens. Besides, in data set [2], the “duration of sustained release (in words)” value is “sustained for at least two hours”; the “release between the 6 hour and 24 hour time points (in words)” value is given as “no significant release”.
The like results for “poly-L-lysine hydrobromide [Formulation 1K-5K]” were, in that order, 142 μg/lens, “sustained for at least two hours” and “no significant release”.
In data set [1], “poly-L-lysine hydrobromide [Formulation 15K-30K]” came in with an uptake of 414 μg/lens. The “release between the 6 hour and 24 hour time points (in words)” value in data set [2] is given as “significant release”.
In data set [1], “poly-L-lysine hydrobromide [Formulation 30K-70K]” came in with an uptake of 299 μg/lens.
Turning to “poly-L-lysine hydrobromide [Formulation 4K-15K]”, the uptake in data set [1] turned out to be 400 μg/lens. Also, the “release between the 6 hour and 24 hour time points (in words)” value in data set [2] is on record as “significant release”.
“poly-L-lysine hydrobromide [Formulation 70K-150K]” returned an uptake in data set [1] of 185 μg/lens. For the same substance, the “release of polymer detected (in words)” value in data set [2] (time points 2, 6, and 24 hr) is “No significant release”.
